# According to patent US20130287854A1, “COMPOSITIONS AND USES” (VECTURA LIMITED, priority 2010, published 2013):
# How the values were obtained:
# [1] = cited from earlier work
# [2] = test system: Parkinson's disease patients; assay: Therapeutic effect of apomorphine by pulmonary inhalation in a clinical trial; assay type: in vivo, human
# [3] = human, in vivo
# [4] = test system: Parkinson's disease patients; conditions: subcutaneous injection, marketing literature; cited from earlier work
# patients with PD [5] = conditions: subcutaneous, cited from earlier work
# patients with PD [6] = conditions: subcutaneous, 11/16 patients; cited from earlier work
# [7] = test system: male erectile dysfunction patients; assay: VR004/008 Phase IIb study, male erectile dysfunction; assay type: in vivo, human; conditions: a couple of patients receiving 310 μg and 430 μg doses
# Experimental: In contrast, in a recent clinical study relating to male erectile dysfunction (VR004/008 Phase IIb study), the majority of patients reported that the duration of action lasted between 2 to 10 minutes, although a couple of patients receiving 310 μg and 430 μg doses did report that the duration of action lasted over 30 minutes.=
structure (smiles),measurement,setting,value
CN1CCc2cccc3c2[C@H]1Cc1ccc(O)c(O)c1-3 [apomorphine],dose linearity of pharmacokinetics,"[1]; dose range of 2 to 8 mg, single subcutaneous injection into the abdominal wall, idiopathic Parkinson's disease",linear pharmacokinetics
same,Tmax,[1]; nasal administration,approximately 15 minutes
same,onset of the therapeutic effect (conversion),"[2]; majority of patients, after inhaling",≤ 10 min
same,mean duration of the therapeutic effect,"[2]; pulmonary inhalation, in a clinical trial",75 min
same,"conversion from the off to the on state, quickest reported","[2]; some patients, pulmonary inhalation",2 min
same,"Tmax, fastest observed",[3],1 min
same,patients with improved movement within 20 minutes post dose,[4],90%
same,patients reporting an increased dyskinesia severity compared to baseline,patients with PD [5]; 15 of 20 patients,75%
same,patients reporting signs of dyskinesia,"patients with PD [5]; active group, FIG. 14",35%
same,mean daily duration of on state with non-troublesome dyskinesia and troublesome dyskinesias,patients with PD [5]; active group,0.24 h
same,change in the mean daily period asleep from the baseline,patients with PD [5]; active treatment group,0.10 h
same,mean time to reach therapeutic effect,patients with PD [5]; active treatment group,22.2 min
same,patients reporting incidences of dyskinesia,patients with PD [6],69%
same,duration of action,[7],over 30 minutes
